Assay: Solubility of the OSC small molecule and binder in aromatic hydrocarbon and further solvents
Format: physicochemical
Text: The aromatic hydrocarbon solvent of the multi-solvent formulation is capable of dissolving at least 0.5% by weight of the polycrystalline small molecule of the present invention, more preferably greater than 1%.
The further (subsidiary) solvent(s) are preferably less solubilising of the polycrystalline small molecule and typically dissolve less than 0.2% by weight of the small molecule OSC, more preferably less than 0.1% by weight, more preferably less than 0.05% by weight.
Preferably, the semiconducting binder of the invention is essentially insoluble in the further solvent.

CC[Si](C#Cc1c2cc3c(C)ccc(C)c3cc2c(C#C[Si](CC)(CC)CC)c2cc3c(C)ccc(C)c3cc12)(CC)CC [1,4,8,11-tetramethyl, 6,13-bis-(triethylsilylethynyl)pentacene] gave a Solubility (in 2-Bromomesitylene) of 1.4% w/v, a Solubility (in Bromobenzene) of 3.5% w/v and a Solubility (in Cyclohexane) of less than 0.1%. The Solubility (in Mesitylene) was roughly 1% w/v, the Solubility (in Methyl ethyl ketone (MEK)) was “Insol” and the Solubility (in Propan-2-ol) was “Insol”. For the same compound, the Solubility (in Tetralin) was 0.6% w/v, the Solubility (in n-Heptane) was less than 0.1% and the Solubility (in n-Octane) was less than 0.1%.

Reference: patent US20160359116A1, “Organic Semiconductor Formulations” (SMARTKEM LIMITED, priority 2012, published 2016)
